Laboratory results: article PMC3204160 (Journal of natural products, 2011)
Read-outs that look alike come from different tables or passages of the source.

How the values were obtained:
recombinant human HDAC6 = biological target: T1, recombinant human HDAC6 (Homo sapiens, UniProt Q9UBN7); assay: biochemical; assay type: biochemical; settings: for potency towards HDAC6, times less than to HDAC1–3: reduced form
T1 sequence (Q9UBN7 1-1215): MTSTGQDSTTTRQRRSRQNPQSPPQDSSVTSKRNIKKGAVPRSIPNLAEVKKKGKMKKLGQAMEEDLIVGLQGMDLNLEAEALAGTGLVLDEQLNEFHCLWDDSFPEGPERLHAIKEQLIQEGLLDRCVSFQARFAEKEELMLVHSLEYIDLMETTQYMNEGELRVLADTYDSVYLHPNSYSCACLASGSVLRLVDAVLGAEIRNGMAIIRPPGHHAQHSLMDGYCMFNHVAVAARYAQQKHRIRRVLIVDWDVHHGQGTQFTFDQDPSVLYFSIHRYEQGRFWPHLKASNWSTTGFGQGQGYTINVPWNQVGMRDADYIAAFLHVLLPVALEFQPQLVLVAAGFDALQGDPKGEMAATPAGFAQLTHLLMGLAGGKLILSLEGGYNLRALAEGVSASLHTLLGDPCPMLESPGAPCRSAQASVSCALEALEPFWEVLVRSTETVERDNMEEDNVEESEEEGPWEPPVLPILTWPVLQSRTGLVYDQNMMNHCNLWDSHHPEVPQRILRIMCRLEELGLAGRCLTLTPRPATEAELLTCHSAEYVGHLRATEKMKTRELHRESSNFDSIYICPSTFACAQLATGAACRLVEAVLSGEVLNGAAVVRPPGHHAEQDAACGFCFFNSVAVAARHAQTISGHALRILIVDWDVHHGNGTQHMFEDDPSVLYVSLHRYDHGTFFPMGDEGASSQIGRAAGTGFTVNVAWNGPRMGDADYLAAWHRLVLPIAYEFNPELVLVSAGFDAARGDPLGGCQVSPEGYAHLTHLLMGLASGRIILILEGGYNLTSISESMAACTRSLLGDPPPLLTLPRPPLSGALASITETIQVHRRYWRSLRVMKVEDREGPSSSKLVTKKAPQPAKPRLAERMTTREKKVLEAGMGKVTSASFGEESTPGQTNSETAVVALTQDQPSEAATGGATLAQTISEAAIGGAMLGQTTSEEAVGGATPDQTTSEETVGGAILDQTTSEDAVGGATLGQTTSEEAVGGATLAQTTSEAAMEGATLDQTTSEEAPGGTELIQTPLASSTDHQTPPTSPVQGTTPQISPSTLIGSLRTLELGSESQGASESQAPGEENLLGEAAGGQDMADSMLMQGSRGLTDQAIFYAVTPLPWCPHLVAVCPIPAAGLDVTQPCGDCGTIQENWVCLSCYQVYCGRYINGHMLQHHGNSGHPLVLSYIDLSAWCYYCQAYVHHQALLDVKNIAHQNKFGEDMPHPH

recombinant human HDAC4 = recombinant human HDAC4 (Homo sapiens, UniProt P56524); assay: biochemical; assay type: biochemical
recombinant human HDAC1 = recombinant human HDAC1 (Homo sapiens, UniProt Q13547); assay: Two-step fluorogenic HDAC inhibition assay, HDAC1; assay type: biochemical; settings: for times less active against HDAC1 than against HDAC3/N-CoR2: natural/oxidized prodrug form, range given for HDAC1 and HDAC2 together
recombinant human HDAC2 = recombinant human HDAC2 (Homo sapiens, UniProt Q92769); assay: Two-step fluorogenic HDAC inhibition assay, HDAC2; assay type: biochemical; settings: for times less active against HDAC2 than against HDAC3/N-CoR2: natural/oxidized prodrug form, range given for HDAC1 and HDAC2 together
recombinant human HDAC7 = biological target: T2, recombinant human HDAC7 (Homo sapiens, UniProt Q8WUI4); assay: biochemical
T2 sequence (Q8WUI4 1-952): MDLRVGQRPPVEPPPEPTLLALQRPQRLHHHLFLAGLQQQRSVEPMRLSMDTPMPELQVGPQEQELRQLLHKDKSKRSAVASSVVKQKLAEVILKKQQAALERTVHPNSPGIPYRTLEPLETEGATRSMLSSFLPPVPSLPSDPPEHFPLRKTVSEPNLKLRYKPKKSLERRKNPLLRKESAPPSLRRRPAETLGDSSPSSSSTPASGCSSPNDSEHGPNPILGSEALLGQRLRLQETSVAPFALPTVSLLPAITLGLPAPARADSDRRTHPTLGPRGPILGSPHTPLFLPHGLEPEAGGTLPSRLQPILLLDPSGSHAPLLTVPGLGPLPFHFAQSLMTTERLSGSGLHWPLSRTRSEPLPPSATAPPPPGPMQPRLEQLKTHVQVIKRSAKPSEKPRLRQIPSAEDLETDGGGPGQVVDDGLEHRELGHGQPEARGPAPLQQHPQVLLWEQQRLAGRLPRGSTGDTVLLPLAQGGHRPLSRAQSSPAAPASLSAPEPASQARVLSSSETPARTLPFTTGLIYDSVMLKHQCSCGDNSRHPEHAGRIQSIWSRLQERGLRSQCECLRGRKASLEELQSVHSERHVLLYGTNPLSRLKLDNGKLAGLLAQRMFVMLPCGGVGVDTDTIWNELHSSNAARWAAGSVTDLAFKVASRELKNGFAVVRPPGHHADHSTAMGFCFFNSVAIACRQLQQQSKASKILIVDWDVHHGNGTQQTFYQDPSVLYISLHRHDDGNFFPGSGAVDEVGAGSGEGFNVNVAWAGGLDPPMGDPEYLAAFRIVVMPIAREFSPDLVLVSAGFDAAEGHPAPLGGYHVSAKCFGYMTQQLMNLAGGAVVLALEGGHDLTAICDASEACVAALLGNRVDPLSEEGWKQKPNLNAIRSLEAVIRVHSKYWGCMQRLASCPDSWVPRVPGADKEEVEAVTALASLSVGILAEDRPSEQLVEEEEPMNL

recombinant human HDAC8 = biological target: T3, recombinant human HDAC8 (Homo sapiens, UniProt Q9BY41); assay: biochemical; assay type: biochemical
T3 sequence (Q9BY41 1-377): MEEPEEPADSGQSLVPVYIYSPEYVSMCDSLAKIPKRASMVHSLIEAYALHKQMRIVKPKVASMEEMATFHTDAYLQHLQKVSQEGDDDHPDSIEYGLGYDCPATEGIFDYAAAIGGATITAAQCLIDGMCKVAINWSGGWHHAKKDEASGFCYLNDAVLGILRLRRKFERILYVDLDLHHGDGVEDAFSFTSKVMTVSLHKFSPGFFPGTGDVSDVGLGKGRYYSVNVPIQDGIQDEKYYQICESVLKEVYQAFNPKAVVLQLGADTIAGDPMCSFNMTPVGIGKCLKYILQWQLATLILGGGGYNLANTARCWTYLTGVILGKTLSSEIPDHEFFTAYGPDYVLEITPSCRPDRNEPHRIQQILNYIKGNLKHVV

[1] = test system: NCI-60 human cancer cell lines; assay: NCI-60 anticancer drug screen and COMPARE analysis; assay type: cell-based; settings: for over 90% of the tested NCI-60 cell lines; five concentrations 10^−4 to 10^−8 M
[2] = biological target: HDAC3 (in complex with N-CoR2) (Homo sapiens, UniProt O15379); assay: biochemical
recombinant human HDAC9 = recombinant human HDAC9 (Homo sapiens, UniProt Q9UKV0); assay: biochemical
Chain of recombinant human HDAC9 (Q9UKV0 whole entry): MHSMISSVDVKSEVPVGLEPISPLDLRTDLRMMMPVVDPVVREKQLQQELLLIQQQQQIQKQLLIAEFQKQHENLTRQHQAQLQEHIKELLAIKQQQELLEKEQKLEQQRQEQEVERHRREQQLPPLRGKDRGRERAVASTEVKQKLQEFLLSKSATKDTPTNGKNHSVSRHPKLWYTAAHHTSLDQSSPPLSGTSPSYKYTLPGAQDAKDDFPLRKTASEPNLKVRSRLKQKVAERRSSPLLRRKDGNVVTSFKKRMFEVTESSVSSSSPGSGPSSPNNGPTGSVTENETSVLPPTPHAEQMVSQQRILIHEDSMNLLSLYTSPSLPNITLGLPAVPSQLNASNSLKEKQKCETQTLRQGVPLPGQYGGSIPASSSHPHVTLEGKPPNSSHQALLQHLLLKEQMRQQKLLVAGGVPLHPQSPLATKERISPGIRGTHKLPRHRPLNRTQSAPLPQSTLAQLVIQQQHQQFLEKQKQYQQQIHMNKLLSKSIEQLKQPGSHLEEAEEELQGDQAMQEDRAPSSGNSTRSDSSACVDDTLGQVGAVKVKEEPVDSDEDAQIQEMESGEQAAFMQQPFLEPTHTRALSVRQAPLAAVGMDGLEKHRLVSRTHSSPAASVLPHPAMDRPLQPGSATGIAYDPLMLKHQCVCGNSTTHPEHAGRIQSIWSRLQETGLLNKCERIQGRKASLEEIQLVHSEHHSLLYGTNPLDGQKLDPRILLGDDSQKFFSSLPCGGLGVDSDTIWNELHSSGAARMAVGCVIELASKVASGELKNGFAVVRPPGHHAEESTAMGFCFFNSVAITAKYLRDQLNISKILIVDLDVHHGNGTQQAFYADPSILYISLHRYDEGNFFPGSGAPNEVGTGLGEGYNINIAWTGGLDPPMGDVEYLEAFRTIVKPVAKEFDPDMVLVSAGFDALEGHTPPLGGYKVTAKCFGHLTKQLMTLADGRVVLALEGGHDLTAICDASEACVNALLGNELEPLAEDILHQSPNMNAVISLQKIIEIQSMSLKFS

Chain of recombinant human HDAC2 (Q92769 whole entry): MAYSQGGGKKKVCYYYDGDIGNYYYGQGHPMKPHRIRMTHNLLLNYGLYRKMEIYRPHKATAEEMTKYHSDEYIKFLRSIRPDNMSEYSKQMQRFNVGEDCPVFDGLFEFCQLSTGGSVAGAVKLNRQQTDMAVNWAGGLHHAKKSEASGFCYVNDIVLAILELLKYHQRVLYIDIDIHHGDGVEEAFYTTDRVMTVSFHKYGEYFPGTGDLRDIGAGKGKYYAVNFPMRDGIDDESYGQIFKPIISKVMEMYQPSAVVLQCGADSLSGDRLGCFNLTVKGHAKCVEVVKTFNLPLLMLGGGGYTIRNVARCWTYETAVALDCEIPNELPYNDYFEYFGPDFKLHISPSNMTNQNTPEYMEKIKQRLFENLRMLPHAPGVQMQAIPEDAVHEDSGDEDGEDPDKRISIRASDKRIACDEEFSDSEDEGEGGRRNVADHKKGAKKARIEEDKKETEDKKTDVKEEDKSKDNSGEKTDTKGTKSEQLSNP
Chain of recombinant human HDAC4 (P56524 whole entry): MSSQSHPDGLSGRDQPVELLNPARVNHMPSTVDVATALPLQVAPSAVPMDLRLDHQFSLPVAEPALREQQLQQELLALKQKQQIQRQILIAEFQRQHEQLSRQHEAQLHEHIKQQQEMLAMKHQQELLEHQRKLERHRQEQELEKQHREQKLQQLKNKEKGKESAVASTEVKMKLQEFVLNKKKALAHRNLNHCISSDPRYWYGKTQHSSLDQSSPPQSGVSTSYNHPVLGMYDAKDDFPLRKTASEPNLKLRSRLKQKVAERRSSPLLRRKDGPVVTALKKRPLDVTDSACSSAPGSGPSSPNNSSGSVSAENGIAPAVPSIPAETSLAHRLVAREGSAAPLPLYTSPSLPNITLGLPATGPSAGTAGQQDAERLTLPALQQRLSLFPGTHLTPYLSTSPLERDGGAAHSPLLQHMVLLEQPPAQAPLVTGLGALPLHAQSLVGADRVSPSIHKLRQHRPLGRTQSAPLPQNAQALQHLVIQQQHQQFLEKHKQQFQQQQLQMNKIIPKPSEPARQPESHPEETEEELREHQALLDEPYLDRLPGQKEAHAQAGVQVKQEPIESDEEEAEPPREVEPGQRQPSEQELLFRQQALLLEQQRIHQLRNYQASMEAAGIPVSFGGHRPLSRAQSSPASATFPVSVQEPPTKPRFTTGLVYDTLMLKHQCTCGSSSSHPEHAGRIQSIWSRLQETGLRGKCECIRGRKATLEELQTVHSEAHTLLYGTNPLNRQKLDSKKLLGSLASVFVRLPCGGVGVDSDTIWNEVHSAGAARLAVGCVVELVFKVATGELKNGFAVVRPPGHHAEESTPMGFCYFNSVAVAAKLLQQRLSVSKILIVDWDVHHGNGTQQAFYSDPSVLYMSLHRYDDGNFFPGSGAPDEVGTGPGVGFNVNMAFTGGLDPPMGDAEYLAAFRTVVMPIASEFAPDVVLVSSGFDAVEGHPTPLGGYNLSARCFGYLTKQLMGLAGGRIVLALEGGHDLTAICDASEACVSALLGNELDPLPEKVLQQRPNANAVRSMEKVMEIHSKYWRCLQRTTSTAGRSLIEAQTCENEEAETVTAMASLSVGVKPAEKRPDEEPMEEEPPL
Chain of recombinant human HDAC1 (Q13547 whole entry): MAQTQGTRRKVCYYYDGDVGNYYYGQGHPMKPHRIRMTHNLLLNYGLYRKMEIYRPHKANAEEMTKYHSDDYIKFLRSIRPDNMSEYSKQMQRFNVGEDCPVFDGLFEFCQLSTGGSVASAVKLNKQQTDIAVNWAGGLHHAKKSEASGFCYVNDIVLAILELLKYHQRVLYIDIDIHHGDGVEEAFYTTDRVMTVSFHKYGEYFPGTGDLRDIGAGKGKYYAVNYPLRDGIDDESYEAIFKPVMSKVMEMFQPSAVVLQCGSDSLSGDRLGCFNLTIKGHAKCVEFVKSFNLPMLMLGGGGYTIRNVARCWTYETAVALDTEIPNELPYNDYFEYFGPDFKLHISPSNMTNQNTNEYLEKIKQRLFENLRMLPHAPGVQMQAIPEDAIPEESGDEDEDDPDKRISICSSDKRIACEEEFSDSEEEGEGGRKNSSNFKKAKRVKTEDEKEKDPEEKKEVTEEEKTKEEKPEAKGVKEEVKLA
Chain of HDAC3 (in complex with N-CoR2) (O15379 whole entry): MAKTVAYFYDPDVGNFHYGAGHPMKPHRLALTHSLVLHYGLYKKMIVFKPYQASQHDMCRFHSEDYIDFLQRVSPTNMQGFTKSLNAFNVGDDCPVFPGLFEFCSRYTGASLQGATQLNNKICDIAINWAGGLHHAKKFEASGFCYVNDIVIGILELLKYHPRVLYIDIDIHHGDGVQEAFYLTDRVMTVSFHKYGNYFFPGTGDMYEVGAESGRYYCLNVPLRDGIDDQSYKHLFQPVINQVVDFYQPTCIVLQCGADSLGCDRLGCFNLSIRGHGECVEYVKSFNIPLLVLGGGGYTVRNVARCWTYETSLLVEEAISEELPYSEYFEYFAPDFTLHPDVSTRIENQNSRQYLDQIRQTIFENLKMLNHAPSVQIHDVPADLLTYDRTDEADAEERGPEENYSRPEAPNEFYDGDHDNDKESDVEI
Chain of HDAC3 (in complex with N-CoR2) (Q9Y618 395-489 partner limits assumed): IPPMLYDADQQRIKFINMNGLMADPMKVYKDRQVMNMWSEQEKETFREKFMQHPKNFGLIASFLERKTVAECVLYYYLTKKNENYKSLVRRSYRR

Row | Structure (SMILES) | potency towards HDAC6, times less than to HDAC1–3 (recombinant human HDAC6) | IC50 (recombinant human HDAC4) | IC50 (recombinant human HDAC1) | times less active against HDAC1 than against HDAC3/N-CoR2 (recombinant human HDAC1) | times less active against HDAC2 than against HDAC3/N-CoR2 (recombinant human HDAC2) | IC50 (recombinant human HDAC7) | inhibition of HDAC8, times weaker than the inhibition of HDAC1–3 (recombinant human HDAC8; reduced form) | GI50 (growth inhibition) [1] | IC50 (recombinant human HDAC8) | fold less potent against HDAC8 than 2* (recombinant human HDAC8) | inhibition of HDAC8, times weaker than the inhibition of HDAC1–3 (recombinant human HDAC8) | IC50 (recombinant human HDAC6) | fold less potent against HDAC4 than 2* (recombinant human HDAC4) | IC50 [2] | IC50 (recombinant human HDAC9) | IC50 (recombinant human HDAC2)
1 | C/C=C1\NC(=O)[C@H]2CSSCC/C=C/[C@H](CC(=O)N[C@H](C(C)C)C(=O)N2)OC(=O)[C@H](C(C)C)NC1=O [Compound 2, FK228, reference compound] | 30–100 times | 470 nM | 5.3 nM | 80–450 times | 80–450 times | 3200 nM | – | – | – | – | – | – | – | – | – | –
2 | CCCC[C@H]1NC(=O)C[C@H]2/C=C/CCSSC[C@@H](NC1=O)C(=O)N[C@H]([C@@H](C)CC)[C@@H](O)CC(=O)O2 [Compound 7, thailandepsin B] | 30–100 times | – | – | 80–450 times | 80–450 times | – | 80–350 times | low nanomolar concentrations | – | – | – | – | – | – | – | –
3 | CC[C@H](C)[C@H]1NC(=O)[C@H]2CSSCC/C=C/[C@H](CC(=O)N[C@H](CCSC)C(=O)N2)OC(=O)C[C@@H]1O [Compound 6, thailandepsin A] | 30–100 times | 42000 nM | 14 nM | 80–450 times | 80–450 times | 11000 nM | – | low nanomolar concentrations | 1200 nM | 40–90 fold | 80–350 times | 380 nM | 40–90 fold | 4.8 nM | 12000 nM | 3.5 nM
